US8299021B2, “Macrocyclic inhibitors of hepatitis C virus replication” (InterMune, Inc., priority 2005, dated 2012)
Where two headings read alike, the source gives them in different places.

Columns and labels:
[1] = test system: HCV sub-genomic replicon GS4.3 (HuH-7 hepatoma cells); assay: Quantitation by ELISA of neomycin phosphotransferase II (NPTII) in the HCV sub-genomic replicon, GS4.3; format: cell-based; details: GS4.3 cells, 72 h, read-out: Replicon EC50
Source text: Quantitation by ELISA of the Selectable Marker Protein, Neomycin Phosphotransferase II (NPTII) in the HCV Sub-Genomic Replicon, GS4.3
The HCV sub-genomic replicon (1377/NS3-3′, accession No. AJ242652), stably maintained in HuH-7 hepatoma cells, was created by Lohmann et al. Science 285: 110-113 (1999). The replicon-containing cell culture, designated GS4.3, was obtained from Dr. Christoph Seeger of the Institute for Cancer Research, Fox Chase Cancer Center, Philadelphia, Pa.
GS4.3 cells were maintained at 37° C., 5% CO2, in DMEM (Gibco 11965-092) supplemented with L-glutamine 200 mM (100×) (Gibco25030-081), non-essential amino acids (NEAA)(Biowhittaker 13-114E), heat-inactivated (HI) Fetal Bovine Serum(FBS)(Hyclone SH3007.03) and […] geneticin (G418)(Gibco 10131-035). Cells were sub-divided 1:3 or 4 every 2-3 days.
24 h prior to the assay, GS4.3 cells were collected, counted, and plated in 96-well plates (Costar 3585) at 7500 cells/well in 100 μl standard maintenance medium (above) and incubated in the conditions above. To initiate the assay, culture medium was removed, cells were washed once with PBS (Gibco 10010-023) and 90 μl Assay Medium (DMEM, L-glutamine, NEAA, 10% HI FBS, no G418) was added. Inhibitors were made as a 10× stock in Assay Medium, (3-fold dilutions from 10 μM to […] final concentration, final DMSO concentration 1%), 10 μl were added to duplicate wells, plates were rocked to mix, and incubated as above for 72 h.
An NPTII Elisa kit was obtained from AGDIA, Inc. (Compound direct ELISA test system for Neomycin Phosphotransferase II, PSP 73000/4800). Manufacturer's instructions were followed, with some modifications. 10×PEB-1 lysis buffer was made up to include 500 μM PMSF (Sigma P7626, 50 mM stock in isopropanol). After 72 h incubation, cells were washed once with PBS and 150 μlPEB-1 with PMSF was added per well. Plates were agitated vigorously for 15 minutes, room temperature, then frozen at −70° C. Plates were thawed, lysates were mixed thoroughly, and 100 μl were applied to an NPTII Elisa plate. A standard curve was made. Lysate from DMSO-treated control cells was pooled, serially diluted with PEB-1 with PMSF, and applied to duplicate wells of the ELISA plate, in a range of initial lysate amount of 150 ul-2.5 ul. In addition, 100 μl buffer alone was applied in duplicate as a blank. Plates were sealed and gently agitated at room temperature for 2 h. Following capture incubation, the plates were washed 5×300 μlwith PBS-T (0.5% Tween-20, PBS-T was supplied in the ELISA kit). For detection, a 1× dilution of enzyme conjugate diluent MRS-2 (5×) was made in PBS-T, into which 1:100 dilutions of enzyme conjugates A and B were added, as per instructions. Plates were resealed, and incubated with agitation, covered, room temperature, for 2 h. The washing was then repeated and 100 μlof room temperature TMB substrate was added. After approximately 30 minutes incubation (room temperature, agitation, covered), the reaction was stopped with 50 μl 3M sulfuric acid. Plates were read at 450 nm on a Molecular Devices Versamax plate reader.
Inhibitor effect was expressed as a percentage of DMSO-treated control signal, and inhibition curves were calculated using a 4-parameter equation: y=A+4B-A)/(1+((C/x)^13))), where C is half-maximal activity or EC50.

[2] = molecular target: T1, NS3-NS4 protease (full-length NS3/NS4A-2) (Hepatitis C virus genotype 1a, UniProt P27958); assay: NS3-NS4 protease assay / NS3 inhibition assay (RETS1 substrate, fluorescence kinetic read); format: biochemical; details: read-out: NS3-NS4 IC50
T1 construct: Recombinant E. coli or Baculovirus full-length NS3 was diluted to 3.33 μM with assay buffer; made in house; host or cells: E. coli or baculovirus (insect cells)
Method: NS3 complex formation with NS4A-2.
The appropriate amount of NS4A-2 to 8.3 mM in assay buffer was added to equal the volume of NS3 in step 2.1.1 (conversion factor—3.8 mg/272 μL assay buffer). The material was transferred to an eppendorf tube and place in water bath in 4° C. refrigerator.
After equilibration to 4° C., equal volumes of NS3 and NS4A-2 solutions were combined in an eppendorf tube, mix gently with a manual pipettor, and incubate mixture for 15 minutes in the 4° C. water bath.
After 15 minutes at 4° C., the NS3/NS4A-2 eppendorf tube was removed and place it in a room temperature water bath for 10 minutes. NS3/NS4A-2 was alliquoted at appropriate volumes and store at −80° C. (E. coli NS3 run at 2 nM in assay, aliquot at 25 μL. BV NS3 run at 3 nM in assay, aliquot at 30 μL).
Sample compounds were dissolved to 10 mM in DMSO then diluted to 2.5 mM (1:4) in DMSO.
The E. coli. […] Using the manual multichannel pipettor, careful not to introduce bubbles into the plate, add 50 μL assay buffer to wells A01-H01 of a black Costar 96-well polypropylene storage plate.
Using the manual multichannel pipettor, careful not to introduce bubbles into the plate, add 50 μL of diluted NS3/NS4A-2 from step 2.2.6 to wells A02-H12 of plate in step 2.2.7. Using the manual multichannel pipettor, careful not to introduce bubbles into the plate, transfer 25 μL of the wells in drug dilution plate in step 2.2.5 to corresponding wells in assay plate in step 2.2.8. Change tips on multichannel pipettor for each row of compounds transferred. Using the manual multichannel pipettor, careful not to introduce bubbles into the plate, mix the wells from the assay plate in step 2.2.9 by aspirating and dispensing 35 μL of the 75 μL in each well five times. Change tips on multichannel pipettor for each row of wells mixed. Cover plate with a polystyrene plate lid and pre-incubate the plate from step 2.2.10 containing NS3 protease and sample compounds 10 minutes at room temperature. While plate from step 2.2.11 is pre-incubating, dilute RETS1 substrate in a 15 mL polypropylene centrifuge tube.
After the plate in step is done pre-incubating, and using the manual multichannel, add 25 μL of substrate to all wells on the plate. Quickly mix the plate as in step 2.2.10, mixing 65 μL of the 100 μL in the wells.
Read the plate in kinetic mode on the Molecular Devices SpectraMax
IC50s are determined using a four parameter curve fit equation, and converted to Ki's using the following Km's:
where Ki=IC50/(1+[S]/Km))

T1 sequence (P27958 1027-1657): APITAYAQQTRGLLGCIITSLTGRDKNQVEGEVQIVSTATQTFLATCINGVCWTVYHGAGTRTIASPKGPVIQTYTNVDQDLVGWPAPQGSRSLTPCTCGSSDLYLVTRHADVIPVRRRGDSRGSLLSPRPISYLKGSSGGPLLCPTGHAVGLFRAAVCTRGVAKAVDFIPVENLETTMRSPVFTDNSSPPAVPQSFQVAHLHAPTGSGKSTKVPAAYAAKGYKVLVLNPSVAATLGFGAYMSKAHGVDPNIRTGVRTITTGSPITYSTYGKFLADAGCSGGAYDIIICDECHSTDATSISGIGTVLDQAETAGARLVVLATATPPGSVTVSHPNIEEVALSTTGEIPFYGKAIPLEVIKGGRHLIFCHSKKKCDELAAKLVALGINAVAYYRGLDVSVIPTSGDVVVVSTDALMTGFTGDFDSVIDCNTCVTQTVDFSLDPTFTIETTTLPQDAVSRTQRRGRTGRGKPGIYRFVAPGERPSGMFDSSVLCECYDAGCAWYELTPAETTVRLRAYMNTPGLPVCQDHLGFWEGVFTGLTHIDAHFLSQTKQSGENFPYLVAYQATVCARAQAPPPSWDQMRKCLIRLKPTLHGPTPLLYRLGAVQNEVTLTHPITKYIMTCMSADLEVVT

Structure (SMILES)	EC50 ([1]; Hepatitis C virus, Huh-7)	IC50 [2]	EC50 [1]
CC(C)(C)OC(=O)NC1CCCCC/C=C\[C@H]2C[C@@]2(C(=O)NS(=O)(=O)NCC(F)(F)F)NC(=O)C2CC(OC(=O)N3Cc4cccc(Cl)c4C3)CN2C1=O (single isomer, unassigned) [Compound 226]	< 100 nM	< 100 nM	–
CC(C)(C)OC(=O)N[C@H]1CCCCC/C=C\[C@@H]2C[C@@]2(C(=O)NS(=O)(=O)C2(C)CC2)NC(=O)[C@@H]2C[C@@H](OC(=O)N3Cc4ccccc4C3)CN2C1=O [Compound 100, (1S,4R,6S,14S,18R)-1,3-Dihydro-isoindole-2-carboxylic acid 14-tert-butoxycarbonylamino-4-(1-methylcyclopropane-1-sulfonyl)aminocarbonyl-2,15-dioxo-3,16-diaza-tricyclo[14.3.0.0^4,6]nonadec-7-en-18-yl Ester]	< 100 nM	< 100 nM	–
C[C@@H](NC(=O)O[C@@H]1C[C@H]2C(=O)N[C@]3(C(=O)NS(=O)(=O)C4CC4)C[C@H]3/C=C\CCCCC[C@H](NC(=O)OC(C)(C)C)C(=O)N2C1)c1ccc(F)cn1 [Compound 150]	–	< 100 nM	> 10000 nM
CC(C)(C)OC(=O)N[C@H]1CCCCC/C=C\[C@@H]2C[C@@]2(C(=O)NS(=O)(=O)C2CC2)NC(=O)C2C[C@@H](OC(=O)NCc3ccc(F)cn3)CN2C1=O (some centres unmarked) [Compound 152]	> 10000 nM	< 100 nM	–
CC(C)(C)OC(=O)N[C@H]1CCCCC/C=C\[C@@H]2C[C@@]2(C(=O)O)NC(=O)C2C[C@@H](OC(=O)N3Cc4cccc(Cl)c4C3)CN2C1=O (some centres unmarked) [Compound 177]	< 10000 nM	< 100 nM	–
O=C1N[C@]2(C(=O)NS(=O)(=O)C3CC3)C[C@H]2/C=C\CCCCC[C@H](NC(=O)N2CCCC2)C(=O)N2CC(OC(=O)N3Cc4cccc(F)c4C3)C[C@@H]12 (some centres unmarked) [Compound 243]	< 100 nM	–	–
O=C1N[C@]2(C(=O)NS(=O)(=O)C3CC3)C[C@H]2/C=C\CCCCC[C@H](NC(=S)N2CCCC2)C(=O)N2CC(OC(=O)N3Cc4cccc(F)c4C3)C[C@@H]12 (some centres unmarked) [Compound 244]	< 100 nM	–	–
CN(Cc1ccccc1)C(=O)OC1C[C@H]2C(=O)N[C@]3(C(=O)NS(=O)(=O)C4CC4)C[C@H]3/C=C\CCCCC[C@H](NC(=O)OC(C)(C)C)C(=O)N2C1 (some centres unmarked) [Compound 245]	< 1000 nM	–	–
O=C1N[C@]2(C(=O)NS(=O)(=O)C3CC3)C[C@H]2/C=C\CCCCC[C@H](NC(=O)C2(C(F)(F)F)CC2)C(=O)N2C[C@H](OC(=O)N3Cc4cccc(Cl)c4C3)C[C@@H]12 [Compound 265]	< 100 nM	< 100 nM	–
CNc1c(NC(=O)C23C[C@H]2/C=C\CCCCC[C@H](NC(=O)OC(C)(C)C)C(=O)N2C[C@H](OC(=O)N4Cc5cccc(F)c5C4)C[C@H]2C(=O)N3)c(=O)c1=O (some centres unmarked) [Compound 646]	> 10000 nM	–	–
CC(C)(C)OC(=O)N[C@H]1CCCCC/C=C\[C@@H]2C[C@@]2(C(=O)NC(=O)c2ccccc2)NC(=O)[C@@H]2C[C@@H](OC(=O)N3Cc4ccccc4C3)CC2C1=O (some centres unmarked) [Compound 705]	< 100 nM	< 100 nM	–
O=C(N[C@H]1CCCCC/C=C\[C@@H]2C[C@@]2(C(=O)NC(=O)C2CC2)NC(=O)C2C[C@@H](OC(=O)N3CCc4ccccc4C3)CN2C1=O)OC1CCCC1 (some centres unmarked) [Compound 706]	< 100 nM	–	–
O=C1N[C@]2(C(=O)NS(=O)(=O)C3CC3)C[C@H]2/C=C\CCCCC[C@H](NCc2ccc(CO)o2)C(=O)N2C[C@H](OC(=O)N3Cc4cccc(F)c4C3)C[C@@H]12 [Compound 913]	< 1000 nM	< 100 nM	–
CC(C)(C)OC(=O)N[C@H]1CCC(O)CC/C=C\[C@@H]2C[C@@]2(C(=O)NS(=O)(=O)C2CC2)NC(=O)[C@@H]2C[C@@H](OC(=O)N3Cc4cccc(F)c4C3)CN2C1=O (some centres unmarked) [Compound 1018]	< 1000 nM	–	–
CC(C)(C)OC(=O)N[C@H]1COCCC/C=C\[C@@H]2C[C@@]2(C(=O)NS(=O)(=O)C2CC2)NC(=O)[C@@H]2C[C@@H](OC(=O)N3Cc4cccc(Cl)c4C3)CN2C1=O [Compound 1025]	< 100 nM	–	–
